# Measurements taken from patent US20240116923A1, “USE OF INDOLE, 6- AND 7-AZAINDOLE DERIVATIVES AS INHIBITORS OF FERROPTOSIS REGULATED CELL DEATH” (Seabelife, priority 2021, published 2024).
# Where two headings read alike, the source gives them in different places.
# B1: BDNF: Brain Derived Neurotrophic Factor, reference compound at 50 ng/mL (protein, UniProt P23560 19-247, looked up)
# Neurotrophic factor BDNF …: APMKEANIRGQGGLAYPGVRTHGTLESVNGPKAGSRGLTSLADTFEHVIEELLDEDQKVRPNEENNKDADLYTSRVMLSSQVPLEPPLLFLLEEYKNYLDAANMSMRVRRHSDPARRGELSVCDSISEWVTAADKKTAVDMSGGTVTVLEKVPVSKGQLKQYFYETKCNPMGYTKEGCRGIDKRHWNSQCRTTQSYVRALTMDSKKRIGWRFIRIDTSCVCTLTIKRGR
# Assays:
# Type in all cases: cell-based
# [1] = tested on: mouse hippocampal neuronal cell line HT22; assay: Neurotoxicity and excitotoxicity assay, HT22 cells + glutamate, erastin or RSL3, MTS cell viability; details: Mus musculus
# Protocol: (§1) The excitotoxicity model used was the mouse hippocampal neuronal HT22 cells treated with glutamate [Dixon et al., Cell, 2012, 149(5), 1060-1072]. Ferroptosis and oxidative stress are both associated in this glutamate-induced cell death [Chu et al., Neural Regen. Res., 2020, 15(3), 528-536]. Phenotypic screening was also carried out with additional cell death inducers, erastin and RSL3 ((1S,3R)-Ras-selective lethal), in HT22 and SH-SY5Y (human neuroblastoma cells). Erastin and RSL3 are well described molecules, used as chemical tools for the study of ferroptosis regulation and neuronal pathologies [Lewerenz et al., Front. Neurosci., 2018, 12: 214; Reichert et al., Int. J. Mol. Sci., 2020, 21, 8765].
# (§2) Mouse hippocampal neuronal cell line (HT22, ATCC) and human neuroblastoma cell line (SH-SY5Y, ATCC) were grown in Dulbecco's Modified Eagle Medium (DMEM, Gibco) supplemented with 10% fetal bovine serum (FBS, Gibco) at 37° C. under 5% CO2 atmosphere. Neurotoxicity was induced by erastin or RSL3 and excitotoxicity was induced by glutamate. Cells were seeded in 96-well plates at 5,000 and 10,000 cells/well for HT22 and SH-SY5Y cell lines, respectively. Cells were treated with 0.5-1 μM Erastin (HT22 cells) or 10 μM Erastin (SH-SY5Y cells) or 5-10 mM glutamate (HT22 cells) or 0.5 μM RSL3 (HT22 cells) or 5 μM RSL3 (SH-SY5Y cells) for 24 h in presence of increasing concentrations of inhibitors. Cells treated with DMSO only were used as controls. Cell viability was assessed by MTS assay (CellTiter 96 AQueous One Solution Cell Proliferation assay, Promega).
# (§3) In FIGS. 1, 2A and 2B, an inhibitor was added to HT22 (FIG. 1: compound 6) or SH-SY5Y (FIG. 2A: compound 6; FIG. 2B: compound 25) cells in the presence or not of cell death inducers (erastin, glutamate or RSL3). […] EC50 values for compounds 1-28 were calculated from dose-response curves using Graphpad Prism software.
# [2] = tested on: human neuroblastoma cell line SH-SY5Y; assay: Neurotoxicity assay, SH-SY5Y cells + erastin or RSL3, MTS cell viability; details: Homo sapiens
# Protocol: as §1, §2, §3
# Rat dopaminergic neurons = assay: Protective effect after 6-OHDA injury on rat primary dopaminergic neurons survival (TH staining); details: p<0.0001
# Protocol: As explained in Ding et al., J Neurochem., 2004, (89), administration of 6-Hydroxydopamine (6-OHDA), a neurotoxin, has been widely used to cause the selective degeneration of dopamine (DA) neurons in in vitro and in vivo models. These models are used as Parkinson's disease models, which is characterized by the progressive loss of DA neurons of the substantia nigra.
# Rat dopaminergic neurons were cultured as described by Schinelli et al., J Neurochem., 1988, 50(6). The cells were seeded at a density of 40 000 cells/well in 96 well-plates (precoated with poly-D-lysine; Greiner, Ref: 655940, Batch: E20093UL) and were cultured at 37° C. in a humidified air (95%)/CO2 (5%) atmosphere. Half of the medium was changed every 2 days with fresh medium. In these conditions, after 5 days of culture, astrocytes are present in the culture and release growth factor allowing neurons differentiation. In this condition, 2 to 5% of neurons are dopaminergic neurons.
# 6-OHDA (Sigma, Ref: 162957, Batch MKCK5243) was reconstituted in define culture medium at 40 μM (stock solution). The control medium was prepared in the same conditions. After 7 days of culture, primary mesencephalic neurons were pre-treated for 1 hour with test compounds or reference compound (BDNF, 50 ng/mL) and then intoxicated with 6-OHDA at a final concentration of 20 μM for 2 days incubation in order to induce a neuronal cell death of about 50%+/−5%.
# After 2 days of intoxication in presence or absence of test compounds, cells were fixed by a solution of 4% paraformaldehyde (Sigma, ref 6148, Batch: SZBE2390V) for 20 min at room temperature, the control conditions were fixed as well following the same procedure. The cells were then permeabilized and nonspecific sites were blocked with a solution of phosphate buffered saline (PBS; PanBiotech; ref: P04-36500, Batch: 7701020) containing 0.1% of saponin (Sigma; ref: S7900, Batch: BCBL8667V) and 1% FCS for 15 min at room temperature. Cells were incubated with a mouse monoclonal anti-Tyrosine Hydroxylase (TH, 1/10 000, Sigma; ref: T1299, Batch: 014M4835) antibody in a solution of PBS overnight at 4° C. Antibody against TH stained dopaminergic neurons. […] Nuclei of cells were labelled by a fluorescent marker (Hoechst, Sigma; ref: B1155, Batch: 046M4048V) in the same solution. For each condition, 20 pictures per well were taken using InCell Analyzer™ 2200 (GE Healthcare) with 20× magnification. Images of each culture well were taken in same condition. Analysis of cell bodies of TH positive neurons was performed using Developer software (GE healthcare). A total of 6 data per experimental condition were provided.
# [3] = HT-22, HT22 cells, 0.5 μM RSL3, 24 h, MTS, read-out: EC50 HT22 RSL3
# [4] = HT-22, HT22 cells, 0.5-1 μM Erastin, 24 h, MTS, read-out: EC50 HT22 Erastin
# [5] = HT-22, HT22 cells, 5-10 mM glutamate, 24 h, MTS, read-out: EC50 HT22 Glutamate
# [6] = SH-SY5Y cells, 5 μM RSL3, 24 h, MTS, read-out: EC50 SH-SY5Y RSL3
# [7] = SH-SY5Y cells, 10 μM Erastin, 24 h, MTS, read-out: EC50 SH-SY5Y Erastin
molecule,measurement,setting,value
"CCOc1ccc(-c2cc3c(N4CCCCC4)ccnc3[nH]2)cc1 [Compound 13, 2-(4-ethoxyphenyl)-4-(piperidin-1-yl)-1H-pyrrolo[2,3-b]pyridine]",EC50,[1]; [3],44.1 µM
same,EC50,[1]; [4],3.62 µM
same,EC50,[1]; [5],0.92 µM
same,EC50,[2]; [6],9.25 µM
same,EC50,[2]; [7],1.11 µM
"NCC(=O)Oc1ccc(-c2cc3cccnc3[nH]2)cc1 [Compound 8, 4-(1H-pyrrolo[2,3-b]pyridin-2-yl)phenyl glycinate]",EC50,"[1]; HT-22, 24 h, read-out: EC50 HT22 Erastin",> 25 µM
same,EC50,"[1]; HT-22, 24 h, read-out: EC50 HT22 Glutamate",> 25 µM
same,EC50,"[1]; HT-22, 24 h, read-out: EC50 HT22 RSL3",> 50 µM
same,EC50,"[2]; SH-SY5Y, 24 h, read-out: EC50 SH-SY5Y Erastin",21.5 µM
same,EC50,"[2]; SH-SY5Y, 24 h, read-out: EC50 SH-SY5Y RSL3",5.98 µM
CCOc1ccc(-c2cc3ccc(OC(C)=O)nc3[nH]2)cc1 [Compound 38],EC50,[1]; [3],2.56 µM
same,EC50,[1]; [4],6.78 µM
same,EC50,[2]; [6],0.2 µM
same,EC50,[2]; [7],1.61 µM
"CCOc1ccc(-c2cc3cccn(Cc4ccccc4)c-3n2)cc1 [Compound 26, 7-benzyl-2-(4-ethoxyphenyl)-7H-pyrrolo[2,3-b]pyridine]",EC50,[1]; [4],12.7 µM
same,EC50,[1]; [5],0.82 µM
same,EC50,[2]; [6],33.7 µM
same,EC50,[2]; [7],9.94 µM
"CCOc1ccc(-c2cc3c(Cl)ccnc3n2C(=O)OC(C)(C)C)cc1 [Compound 21, tert-butyl 4-chloro-2-(4-ethoxyphenyl)-1H-pyrrolo[2,3-b]pyridine-1-carboxylate]",EC50,[1]; [4],> 25 µM
same,EC50,[1]; [5],> 25 µM
same,EC50,[2]; [7],> 25 µM
"CCOc1ccc(-c2cc3cccn(Cc4ccc(OC)cc4)c-3n2)cc1 [Compound 27, 2-(4-ethoxyphenyl)-7-(4-methoxybenzyl)-7H-pyrrolo[2,3-b]pyridine]",EC50,[1]; [3],9.93 µM
same,EC50,[1]; [4],3.9 µM
same,EC50,[1]; [5],1.5 µM
same,EC50,[2]; [7],2.46 µM
"CCOc1ccc(-c2cc3ccncc3n2O)cc1 [Compound 5, 2-(4-ethoxyphenyl)-1Hpyrrolo[2,3-c]pyridin-1-ol]",EC50,[1]; [3],2.79 µM
same,EC50,[1]; [4],3.23 µM
same,EC50,[1]; [5],3.6 µM
same,EC50,[2]; [7],0.52 µM
"NCCc1cc(O)c(O)cc1O [Compound 6-OHDA, 6-hydroxydopamine, reference compound]",cellular death of dopaminergic neurons,"Rat dopaminergic neurons; 6-OHDA 20 μM alone, 2 days",48%
"CCOc1ccc(-c2cc3c(N4CCN(C)CC4)ccnc3[nH]2)cc1 [Compound 15, 2-(4-ethoxyphenyl)-4-(4-methylpiperazin-1-yl)-1H-pyrrolo[2,3-b]pyridine]",EC50,[1]; [3],7.19 µM
same,EC50,[1]; [4],1.54 µM
same,EC50,[1]; [5],0.5 µM
same,EC50,[2]; [7],2.45 µM
CCOc1ccc(-c2cc3ccc(Cc4ccncn4)nc3[nH]2)cc1 [Compound 42],EC50,[1]; [3],7.06 µM
same,EC50,[1]; [4],8.04 µM
same,EC50,[2]; [6],1.84 µM
same,EC50,[2]; [7],3.62 µM
"COc1ccc(-c2ccc3cc(-c4ccc(O)cc4)[nH]c3n2)cn1 [Compound 39, 4-(6-(6-methoxypyridin-3-yl)-1H-pyrrolo[2,3-b]pyridin-2-yl)phenol]",EC50,[1]; [3],16.1 µM
same,EC50,[1]; [4],16.1 µM
same,EC50,[2]; [6],1.47 µM
same,EC50,[2]; [7],5.83 µM
"Oc1ccc(-c2cc3ccc(Cl)nc3[nH]2)cc1 [Compound 37, 4-(6-chloro-1H-pyrrolo[2,3-b]pyridin-2-yl)phenol]",EC50,[1]; [3],9.11 µM
same,EC50,[1]; [4],11.8 µM
same,EC50,[2]; [6],1.22 µM
same,EC50,[2]; [7],7.13 µM
"CCOc1ccc(-c2cc3c(NCc4ccccc4)ccnc3[nH]2)cc1 [Compound 12, N-benzyl-2-(4-ethoxyphenyl)-1H-pyrrolo[2,3-b]pyridin-4-amine]",EC50,[1]; [3],0.94 µM
same,EC50,[1]; [4],0.91 µM
same,EC50,[1]; [5],0.5 µM
same,EC50,[2]; [7],0.43 µM
"CCOc1ccc(-c2cc3cccnc3n2CCN2CCOCC2)cc1 [Compound 20, 4-(2-(2-(4-ethoxyphenyl)-1H-pyrrolo[2,3-b]pyridin-1-yl)ethyl)morpholine]",EC50,[1]; [3],16.7 µM
same,EC50,[1]; [4],5.14 µM
same,EC50,[1]; [5],11.1 µM
same,EC50,[2]; [6],27.4 µM
same,EC50,[2]; [7],21.4 µM
B1,cellular death of dopaminergic neurons after 6-OHDA injury,"Rat dopaminergic neurons; 50 ng/mL, 1 h pre-treatment, 6-OHDA 20 μM 2 days (6-OHDA alone 48%)",15%
